{
  "source": "patent US20210024649A1",
  "about": "“Methods and Compositions for Antibody and Antibody-loaded Dendritic Cell Mediated Therapy” (The Board of Trustees of the Leland Stanford Junior …, priority 2014, published 2021)",
  "system": "tumor-associated DC (TADC)",
  "assay": "TADC cultured with alloIgG-IC with or without stimuli",
  "format": "cell-based, mouse",
  "settings": "stimulus added to TADC with alloIgG-IC",
  "procedure": "BM mononuclear cells were negatively selected using a murine monocyte enrichment kit (Stem Cell Technologies, Vancouver Canada), and FSC^lo/SSC^lo/Gr1^hi/CD115^hi/MHCII^neg cells were sorted with a FACS Aria II (BD Biosciences). Monocytes were cultured for 4-5 days in the presence of 50 ng/ml GM-CSF (PeproTech) to generate DC. For TADC, tumors were digested in Hank's balanced salt solution (HBSS, Gibco) containing 5 mg/mL collagenase IV and 0.01 mg/mL DNase I (Sigma). Cells were applied on a Ficoll gradient and magnetically enriched using CD11b^+ selection kits (StemCells) and Gr1^neg/CD11c^+/MHCII^+ cells were sorted by FACS. In some experiments TADC were activated with 50 ng/mL TNFα (PeproTech) and 500 ng/mL CD40L (PeproTech) recombinant mouse proteins.\nTo resolve this apparent discrepancy, tumor-associated DC (TADC) (FIG. 7a) were obtained and cultured these cells with tumor lysates or alloIgG-IC. […] Since the expression pattern of Fcγ receptors on TADC was similar to that of BMDC, and several immune stimuli are known to induce MAPK activation in DC, the effect of such stimuli on the response of TADC to allogG-IC was tested.",
  "data": [
    {"substance": "polyinosinic:polycytidylic acid [poly I:C]", "values": [
      {"measurement": "activation of TADC and uptake of alloIgG-IC", "value": "enabled activation of TADC as well as uptake of alloIgG-IC"}
    ]}
  ]
}
